Laboratory results as given in ChEMBL document CHEMBL2176888, “Structure-activity relationships in human Toll-like receptor 8-active 2,3-diamino-furo[2,3-c]pyridines” (J Med Chem, 2012).
Each block holds one molecule with its values, some of them ahead of it. Active and inactive are the calls of the source. The calls are words filed in the database; no cut-off is given here.

Columns and labels:
Assay type in all cases: functional, cell-based
[1] = biological target: T1, Toll-like receptor 8 (Homo sapiens) (UniProt Q9NR97); experiment: Agonist activity at human TLR8 expressed in HEK293 cells assessed as induction of NF-kappaB activity by measuring extracellular secreted alkaline phosphatase up to 250 uM by HEK-blue reporter gene assay
T1 sequence (whole entry): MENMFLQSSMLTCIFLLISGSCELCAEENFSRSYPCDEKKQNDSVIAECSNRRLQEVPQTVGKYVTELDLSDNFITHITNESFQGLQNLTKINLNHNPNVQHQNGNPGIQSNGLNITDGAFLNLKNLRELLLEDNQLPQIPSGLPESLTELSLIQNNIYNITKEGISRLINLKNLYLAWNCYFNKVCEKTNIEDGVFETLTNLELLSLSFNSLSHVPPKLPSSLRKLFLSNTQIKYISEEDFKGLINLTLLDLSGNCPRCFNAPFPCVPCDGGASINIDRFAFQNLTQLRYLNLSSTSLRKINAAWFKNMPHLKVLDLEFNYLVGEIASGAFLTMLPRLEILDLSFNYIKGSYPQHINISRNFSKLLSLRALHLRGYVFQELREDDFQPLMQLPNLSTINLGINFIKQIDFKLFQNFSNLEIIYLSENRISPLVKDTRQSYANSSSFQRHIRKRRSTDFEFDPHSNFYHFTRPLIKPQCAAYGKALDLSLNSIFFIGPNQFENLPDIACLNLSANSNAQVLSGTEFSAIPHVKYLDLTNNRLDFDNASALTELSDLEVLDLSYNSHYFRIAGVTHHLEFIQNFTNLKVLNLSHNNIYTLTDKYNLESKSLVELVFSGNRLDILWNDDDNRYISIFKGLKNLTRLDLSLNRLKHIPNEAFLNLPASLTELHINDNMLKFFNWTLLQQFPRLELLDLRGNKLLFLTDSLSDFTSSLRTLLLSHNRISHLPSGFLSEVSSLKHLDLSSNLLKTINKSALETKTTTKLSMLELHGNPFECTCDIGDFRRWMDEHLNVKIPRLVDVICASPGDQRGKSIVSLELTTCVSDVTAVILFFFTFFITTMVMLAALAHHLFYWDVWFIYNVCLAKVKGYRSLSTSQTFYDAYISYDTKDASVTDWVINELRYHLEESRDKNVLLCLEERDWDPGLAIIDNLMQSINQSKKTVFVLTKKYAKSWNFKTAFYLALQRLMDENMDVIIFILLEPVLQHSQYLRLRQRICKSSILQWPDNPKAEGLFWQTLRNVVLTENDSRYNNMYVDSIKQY

[2] = biological target: T2, Toll-like receptor 7 (Homo sapiens) (UniProt Q9NYK1); experiment: Agonist activity at human TLR7 expressed in HEK293 cells assessed as induction of NF-kappaB activity by measuring extracellular secreted alkaline phosphatase up to 250 uM by HEK-blue reporter gene assay
T2 sequence (whole entry): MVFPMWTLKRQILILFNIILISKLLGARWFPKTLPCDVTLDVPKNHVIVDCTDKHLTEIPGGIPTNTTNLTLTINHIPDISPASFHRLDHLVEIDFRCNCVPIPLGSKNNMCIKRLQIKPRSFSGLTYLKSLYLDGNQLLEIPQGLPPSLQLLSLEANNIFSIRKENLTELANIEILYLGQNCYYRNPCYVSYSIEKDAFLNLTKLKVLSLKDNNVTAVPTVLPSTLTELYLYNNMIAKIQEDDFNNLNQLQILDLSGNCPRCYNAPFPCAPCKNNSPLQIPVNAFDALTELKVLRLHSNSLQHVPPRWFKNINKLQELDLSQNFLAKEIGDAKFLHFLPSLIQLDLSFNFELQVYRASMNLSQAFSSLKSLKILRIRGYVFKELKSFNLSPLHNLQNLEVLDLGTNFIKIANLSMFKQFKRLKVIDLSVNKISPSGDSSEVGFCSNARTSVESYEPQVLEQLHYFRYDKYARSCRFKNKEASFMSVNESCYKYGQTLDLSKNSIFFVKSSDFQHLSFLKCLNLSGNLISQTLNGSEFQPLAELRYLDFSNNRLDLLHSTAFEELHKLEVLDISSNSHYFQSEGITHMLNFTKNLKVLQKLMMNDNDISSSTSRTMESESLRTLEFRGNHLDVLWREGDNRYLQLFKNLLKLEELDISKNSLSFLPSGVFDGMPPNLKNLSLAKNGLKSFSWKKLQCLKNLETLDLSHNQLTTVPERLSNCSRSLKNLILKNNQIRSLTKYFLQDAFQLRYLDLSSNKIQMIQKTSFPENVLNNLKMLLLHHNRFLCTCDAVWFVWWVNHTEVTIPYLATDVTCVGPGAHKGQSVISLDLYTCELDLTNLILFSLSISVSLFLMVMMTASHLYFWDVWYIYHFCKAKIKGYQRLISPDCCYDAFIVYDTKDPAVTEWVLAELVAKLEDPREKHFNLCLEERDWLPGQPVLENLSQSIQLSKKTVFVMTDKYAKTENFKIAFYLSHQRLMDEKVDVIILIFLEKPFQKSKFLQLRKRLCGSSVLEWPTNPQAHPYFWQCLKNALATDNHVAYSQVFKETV

[3] = biological target: Toll-like receptor 4 (Homo sapiens) (UniProt O00206); experiment: Agonist activity at human TLR4 expressed in HEK293 cells assessed as induction of NF-kappaB activity by measuring extracellular secreted alkaline phosphatase up to 250 uM by HEK-blue reporter gene assay
Toll-like receptor 4 (Homo sapiens), sequence (O00206 whole entry): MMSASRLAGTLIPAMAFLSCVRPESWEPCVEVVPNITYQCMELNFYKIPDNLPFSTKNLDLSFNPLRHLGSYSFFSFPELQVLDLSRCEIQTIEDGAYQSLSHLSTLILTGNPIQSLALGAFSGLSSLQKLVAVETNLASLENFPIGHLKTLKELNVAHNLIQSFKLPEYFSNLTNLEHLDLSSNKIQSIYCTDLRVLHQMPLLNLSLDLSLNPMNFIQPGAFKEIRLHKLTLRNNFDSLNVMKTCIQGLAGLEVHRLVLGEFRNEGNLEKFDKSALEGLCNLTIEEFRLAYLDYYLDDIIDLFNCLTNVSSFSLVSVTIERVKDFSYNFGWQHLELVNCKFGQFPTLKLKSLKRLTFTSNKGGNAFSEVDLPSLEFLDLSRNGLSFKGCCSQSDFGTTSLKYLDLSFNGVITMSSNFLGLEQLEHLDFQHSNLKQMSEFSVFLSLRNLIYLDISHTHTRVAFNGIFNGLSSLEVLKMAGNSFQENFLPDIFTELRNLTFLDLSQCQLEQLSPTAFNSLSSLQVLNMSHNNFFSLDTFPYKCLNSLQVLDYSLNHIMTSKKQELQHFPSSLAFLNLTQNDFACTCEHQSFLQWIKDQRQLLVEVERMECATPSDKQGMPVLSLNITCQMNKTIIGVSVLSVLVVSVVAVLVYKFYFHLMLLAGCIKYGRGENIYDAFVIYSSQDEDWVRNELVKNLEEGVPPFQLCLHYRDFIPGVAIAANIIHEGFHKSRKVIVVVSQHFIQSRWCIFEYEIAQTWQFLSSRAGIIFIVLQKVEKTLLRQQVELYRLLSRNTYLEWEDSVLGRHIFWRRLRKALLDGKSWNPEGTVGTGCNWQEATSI

[4] = biological target: Toll-like receptor 5 (Homo sapiens) (UniProt O60602); experiment: Agonist activity at human TLR5 expressed in HEK293 cells assessed as induction of NF-kappaB activity by measuring extracellular secreted alkaline phosphatase up to 250 uM by HEK-blue reporter gene assay
Toll-like receptor 5 (Homo sapiens), sequence (O60602 whole entry): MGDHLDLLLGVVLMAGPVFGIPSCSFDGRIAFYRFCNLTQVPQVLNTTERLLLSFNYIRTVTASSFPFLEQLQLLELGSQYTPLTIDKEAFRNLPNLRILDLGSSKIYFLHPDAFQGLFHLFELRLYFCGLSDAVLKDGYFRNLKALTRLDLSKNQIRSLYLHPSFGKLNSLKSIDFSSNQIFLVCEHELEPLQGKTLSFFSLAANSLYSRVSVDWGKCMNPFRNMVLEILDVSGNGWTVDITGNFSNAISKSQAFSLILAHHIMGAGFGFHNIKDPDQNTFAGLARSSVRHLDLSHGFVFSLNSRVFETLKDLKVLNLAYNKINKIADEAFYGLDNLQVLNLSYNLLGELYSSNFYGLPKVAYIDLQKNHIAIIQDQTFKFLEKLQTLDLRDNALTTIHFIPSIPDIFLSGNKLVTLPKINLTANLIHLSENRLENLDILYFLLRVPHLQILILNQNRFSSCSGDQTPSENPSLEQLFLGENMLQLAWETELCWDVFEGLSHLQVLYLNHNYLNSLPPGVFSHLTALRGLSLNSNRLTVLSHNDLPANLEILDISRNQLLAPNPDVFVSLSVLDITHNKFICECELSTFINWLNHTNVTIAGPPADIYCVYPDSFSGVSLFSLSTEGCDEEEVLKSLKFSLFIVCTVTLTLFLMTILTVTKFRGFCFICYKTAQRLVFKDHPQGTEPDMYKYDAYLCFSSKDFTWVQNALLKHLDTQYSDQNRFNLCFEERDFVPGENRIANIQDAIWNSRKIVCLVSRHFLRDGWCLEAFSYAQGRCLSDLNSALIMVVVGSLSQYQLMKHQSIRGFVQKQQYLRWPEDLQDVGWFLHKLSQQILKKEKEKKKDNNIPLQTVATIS

[5] = biological target: Toll-like receptor 3 (Homo sapiens) (UniProt O15455); experiment: Agonist activity at human TLR3 expressed in HEK293 cells assessed as induction of NF-kappaB activity by measuring extracellular secreted alkaline phosphatase up to 250 uM by HEK-blue reporter gene assay
Toll-like receptor 3 (Homo sapiens), sequence (O15455 whole entry): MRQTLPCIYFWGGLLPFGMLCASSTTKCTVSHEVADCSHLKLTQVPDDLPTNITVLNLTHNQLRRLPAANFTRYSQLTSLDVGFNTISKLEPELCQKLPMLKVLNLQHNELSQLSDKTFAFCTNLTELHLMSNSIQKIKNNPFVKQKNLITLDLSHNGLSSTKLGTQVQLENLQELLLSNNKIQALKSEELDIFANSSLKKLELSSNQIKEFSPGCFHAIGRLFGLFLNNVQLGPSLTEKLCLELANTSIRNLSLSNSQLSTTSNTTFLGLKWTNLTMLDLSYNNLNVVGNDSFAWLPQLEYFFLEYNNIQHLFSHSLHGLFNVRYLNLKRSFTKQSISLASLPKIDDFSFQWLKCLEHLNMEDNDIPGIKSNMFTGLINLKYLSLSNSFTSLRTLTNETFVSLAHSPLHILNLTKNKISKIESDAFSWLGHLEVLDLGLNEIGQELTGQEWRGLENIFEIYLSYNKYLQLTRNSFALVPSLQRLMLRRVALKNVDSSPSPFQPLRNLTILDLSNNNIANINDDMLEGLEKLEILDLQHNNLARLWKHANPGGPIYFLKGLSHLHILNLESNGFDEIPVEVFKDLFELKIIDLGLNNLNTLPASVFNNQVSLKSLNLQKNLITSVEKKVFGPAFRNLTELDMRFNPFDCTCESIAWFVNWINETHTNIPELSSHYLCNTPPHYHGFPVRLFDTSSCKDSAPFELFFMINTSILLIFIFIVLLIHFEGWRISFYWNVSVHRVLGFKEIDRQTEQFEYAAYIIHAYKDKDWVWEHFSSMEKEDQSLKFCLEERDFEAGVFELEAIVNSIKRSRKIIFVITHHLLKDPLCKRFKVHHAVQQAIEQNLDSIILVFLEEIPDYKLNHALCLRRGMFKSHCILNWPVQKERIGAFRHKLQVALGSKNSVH

[6] = biological target: T3, Toll-like receptor 9 (Homo sapiens) (UniProt Q9NR96); experiment: Agonist activity at human TLR9 expressed in HEK293 cells assessed as induction of NF-kappaB activity by measuring extracellular secreted alkaline phosphatase up to 250 uM by HEK-blue reporter gene assay
T3 sequence (whole entry): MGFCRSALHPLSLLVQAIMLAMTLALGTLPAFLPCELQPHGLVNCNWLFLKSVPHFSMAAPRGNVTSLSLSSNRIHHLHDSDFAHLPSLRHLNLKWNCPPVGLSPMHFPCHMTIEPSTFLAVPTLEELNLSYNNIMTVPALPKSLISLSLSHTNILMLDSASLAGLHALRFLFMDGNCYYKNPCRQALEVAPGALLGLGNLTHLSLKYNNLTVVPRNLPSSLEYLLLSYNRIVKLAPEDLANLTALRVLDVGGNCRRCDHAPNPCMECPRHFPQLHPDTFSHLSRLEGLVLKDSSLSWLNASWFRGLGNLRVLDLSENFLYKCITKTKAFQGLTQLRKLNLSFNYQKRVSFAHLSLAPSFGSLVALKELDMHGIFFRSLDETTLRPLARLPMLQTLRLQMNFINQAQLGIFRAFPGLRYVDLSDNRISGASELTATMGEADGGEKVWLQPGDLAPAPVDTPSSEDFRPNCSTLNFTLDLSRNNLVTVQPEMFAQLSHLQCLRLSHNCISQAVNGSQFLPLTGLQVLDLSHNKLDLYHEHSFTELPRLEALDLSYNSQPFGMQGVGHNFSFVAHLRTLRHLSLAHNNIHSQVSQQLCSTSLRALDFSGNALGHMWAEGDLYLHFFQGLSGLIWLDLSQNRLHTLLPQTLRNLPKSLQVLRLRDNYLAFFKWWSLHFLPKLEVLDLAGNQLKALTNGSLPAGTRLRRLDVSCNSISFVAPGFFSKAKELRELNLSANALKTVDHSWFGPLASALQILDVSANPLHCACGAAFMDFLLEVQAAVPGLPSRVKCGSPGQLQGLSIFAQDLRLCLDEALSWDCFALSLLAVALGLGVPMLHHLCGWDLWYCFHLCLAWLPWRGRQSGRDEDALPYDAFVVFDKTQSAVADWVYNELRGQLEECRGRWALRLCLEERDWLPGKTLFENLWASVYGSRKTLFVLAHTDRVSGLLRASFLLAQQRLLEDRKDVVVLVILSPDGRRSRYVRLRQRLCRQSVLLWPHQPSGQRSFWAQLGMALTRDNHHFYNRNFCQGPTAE

Toll-like receptor 8 = biological target: T4, Toll-like receptor 8 (Homo sapiens, UniProt Q9NR97); experiment: Agonist activity at human TLR8 expressed in HEK293 cells assessed as induction of NF-kappaB activity by measuring extracellular secreted alkaline phosphatase by HEK-blue reporter gene assay
T4 sequence (Q9NR97 whole entry): T1 sequence (whole entry)

Structure (SMILES): c1ccn2c(NC3CCCCC3)c(-c3ccncc3)nc2c1
- Activity [1]: inactive
- Activity [2]: inactive
- Activity [3]: inactive
- Activity [4]: inactive
- Activity [5]: inactive
- Activity [6]: inactive

Structure (SMILES): Nc1nccn2c(NC3CCCCC3)c(-c3ccc(-c4ccccc4)cc3)nc12
- Activity [1]: inactive
- Activity [2]: inactive
- Activity [3]: inactive
- Activity [4]: inactive
- Activity [5]: inactive
- Activity [6]: inactive

Structure (SMILES): c1ccc(CNc2c(-c3ccncc3)nc3cnccn23)cc1
- Activity [1]: inactive
- Activity [2]: inactive
- Activity [3]: inactive
- Activity [4]: inactive
- Activity [5]: inactive
- Activity [6]: inactive

Structure (SMILES): c1ccc(-c2nc3cnccn3c2NC2CCCCC2)cc1
- Activity [1]: inactive
- Activity [2]: inactive
- Activity [3]: inactive
- Activity [4]: inactive
- Activity [5]: inactive
- Activity [6]: inactive

Structure (SMILES): Cc1ncc(CO)c2c(Nc3ccccc3)c(NCc3ccccc3)oc12
- EC50 (Toll-like receptor 8; read-out: EC50): 1.68 µM

Structure (SMILES): Oc1ccccc1-c1nc2ccccn2c1NCc1ccccc1
- Activity [1]: inactive
- Activity [2]: inactive
- Activity [3]: inactive
- Activity [4]: inactive
- Activity [5]: inactive
- Activity [6]: inactive

Structure (SMILES): CCCCc1nc2c(N)nccn2c1NCc1ccccc1
- Activity [1]: inactive
- Activity [2]: inactive
- Activity [3]: inactive
- Activity [4]: inactive
- Activity [5]: inactive
- Activity [6]: inactive

Structure (SMILES): CCCCCNc1oc2c(C)ncc(CO)c2c1Nc1ccccc1
- EC50 (Toll-like receptor 8; read-out: EC50): 2.25 µM

Structure (SMILES): Cc1ncc(CO)c2c(Nc3ccccn3)c(N[C@@H](C)c3ccccc3)oc12
- EC50 (Toll-like receptor 8; read-out: EC50): 4.27 µM

Structure (SMILES): CC(C)(C)Nc1c(-c2ccccc2O)nc2ccccn12
- Activity [1]: inactive
- Activity [2]: inactive
- Activity [3]: inactive
- Activity [4]: inactive
- Activity [5]: inactive
- Activity [6]: inactive

Structure (SMILES): c1ccc(CNc2c(-c3ccccc3)nc3cnccn23)cc1
- Activity [1]: inactive
- Activity [2]: inactive
- Activity [3]: inactive
- Activity [4]: inactive
- Activity [5]: inactive
- Activity [6]: inactive

Structure (SMILES): CC(C)(C)Nc1c(-c2ccncc2)nc2ccccn12
- Activity [1]: inactive
- Activity [2]: inactive
- Activity [3]: inactive
- Activity [4]: inactive
- Activity [5]: inactive
- Activity [6]: inactive

Structure (SMILES): Cc1ncc(CO)c2c(Nc3ccccn3)c(NC3CCCCC3)oc12
- EC50 (Toll-like receptor 8; read-out: EC50): 6.93 µM

Structure (SMILES): Cc1cccc(Cl)c1Nc1oc2c(C)ncc(CO)c2c1Nc1ccccn1
- EC50 (Toll-like receptor 8; hek293): Not Active

Structure (SMILES): CCCCCNc1oc2c(C)ncc(CO)c2c1Nc1cccc([N+](=O)[O-])c1
- EC50 (Toll-like receptor 8; read-out: EC50): 0.85 µM

Structure (SMILES): Cc1ncc(CO)c(-c2nc3ccccn3c2NC2CCCCC2)c1OCc1ccccc1
- EC50 (Toll-like receptor 8; hek293): Not Active

Structure (SMILES): CCCCCNc1oc2c(C)ncc(CO)c2c1Nc1cccc(F)c1
- EC50 (Toll-like receptor 8; read-out: EC50): 0.37 µM

Structure (SMILES): Cc1ncc(CO)c2c(Nc3cnccn3)c(NC3CCCCC3)oc12
- EC50 (Toll-like receptor 8; read-out: EC50): 10.6 µM

Structure (SMILES): Cc1ncc(CO)c2c(Nc3ccccn3)c(NCCCCCCNc3oc4c(C)ncc(CO)c4c3Nc3ccccn3)oc12
- EC50 (Toll-like receptor 8; read-out: EC50): 3.37 µM

Structure (SMILES): CCOP(=O)(CNc1oc2c(C)ncc(CO)c2c1Nc1ccccn1)OCC
- EC50 (Toll-like receptor 8; hek293): Not Active

Structure (SMILES): Cc1ncc(CO)c2c(Nc3cnccn3)c(NCc3ccccc3)oc12
- EC50 (Toll-like receptor 8; read-out: EC50): 9.79 µM

Results, then the molecule that gave them:

- EC50 (Toll-like receptor 8; hek293): Not Active
Structure (SMILES): Cc1ncc(CO)c2c(Nc3ccccn3)c(N)oc12

- EC50 (Toll-like receptor 8; hek293): Not Active
Structure (SMILES): COc1ccc(Nc2oc3c(C)ncc(CO)c3c2Nc2ccccn2)cc1

- EC50 (Toll-like receptor 8; hek293): Not Active
Structure (SMILES): Cc1ncc(CO)c2c(Nc3ccccn3)c(NC(C)(C)CC(C)(C)C)oc12

- EC50 (Toll-like receptor 8; hek293): Not Active
Structure (SMILES): Cc1ncc(CO)c2c(Nc3cnccn3)c(NC(C)(C)C)oc12

- EC50 (Toll-like receptor 8; hek293): Not Active
Structure (SMILES): Cc1ncc(CO)c2c(Nc3ccccn3)c(NC(C)C)oc12

- EC50 (Toll-like receptor 8; read-out: EC50): 7.64 µM
Structure (SMILES): Cc1ncc(CO)c2c(Nc3ccccn3)c(NCCC(=O)OC(C)(C)C)oc12

- EC50 (Toll-like receptor 8; hek293): Not Active
Structure (SMILES): Cc1ncc(CO)c2c(Nc3ccccn3)c(NC(C)(C)C)oc12

- EC50 (Toll-like receptor 8; hek293): Not Active
Structure (SMILES): CCOC(=O)CNc1oc2c(C)ncc(CO)c2c1Nc1ccccn1

- EC50 (Toll-like receptor 8; read-out: EC50): 9.01 µM
Structure (SMILES): CCCC(C)Nc1oc2c(C)ncc(CO)c2c1Nc1ccccn1 (stereo unspecified)

- EC50 (Toll-like receptor 8; hek293): Not Active
Structure (SMILES): Cc1ncc(CO)c2c(Nc3ccccn3)c(NCCN3CCOCC3)oc12
